The subject of this test is APP/PS1/Tau mice. Briefly: Morris water maze test. Type of test: in vivo. The note with it: for Time in the target quadrant / Times of crossing over the platform / latent period: APP/PS1/Tau mice, intragastric daily for 8 weeks, testing Day 6, n = 10, BTMP 200 mg/kg, VB1 200 mg/kg, donepezil hydrochloride 1.5 mg/kg, ½BTMP 100 mg/kg; for spatial memory and learning ability of the AD mice (result in words): Morris water maze, compared with the model group. From the text: In water, rodents have a strong motivation to escape from the water environment, and can escape from the water environment in the fastest and most direct way. The process of learning to escape from the water environment reflects the learning ability of animals. Spatial positioning according to the surrounding environment and swimming to a safe place in the water (such as a platform) on purpose can reflect the spatial learning and memory ability of animals.
The test animals were male APP/PS1/Tau mice and C57BL/6 wild type mice. The mice were 8 months old, weighing […], and purchased from The Jackson laboratory.
App/PS1/Tau mice are APP/PS1/tau triple transgenic Alzheimer's disease (3×Tg-AD) model mice, whose AO deposition occurs several months earlier than the pathological change of the tau protein, and can more realistically simulate the clinical process and pathological changes of Alzheimer's disease.
Preparation of a 10 mg/ml vitamin B1 solution (dosage: 200 mg/kg): 500 mg of vitamin B1 was weighed, and 0.7% m/v CMC-Na was added to reach 50 ml, to obtain a 10 mg/ml solution.
Preparation of a 10 mg/ml BTMP suspension (dosage: 200 mg/kg): 500 mg of BTMP was weighed, and 0.7% m/v CMC-Na was added to reach 50 ml, to obtain a 10 mg/ml BTMP suspension.
Preparation of a 0.075 mg/ml donepezil hydrochloride suspension (dosage: 1.5 mg/kg): one donepezil hydrochloride tablet (containing 5 mg donepezil hydrochloride) was ground, and 0.7% m/v CMC-Na was added to reach 66.67 ml, to obtain a 0.075 mg/ml donepezil hydrochloride suspension.
Preparation of a 10 mg/ml BTMP suspension+0.075 mg/ml donepezil hydrochloride suspension (dosage: 200 mg/kg BTMP suspension+1.5 mg/kg donepezil hydrochloride suspension): a 20 mg/ml BTMP suspension and a 0.15 mg/ml donepezil hydrochloride suspension were respectively prepared, and equal volumes were evenly mixed before administration, to obtain a 10 mg/ml BTMP suspension+0.075 mg/ml donepezil hydrochloride suspension.
Preparation of a 5 mg/ml BTMP suspension+0.075 mg/ml donepezil hydrochloride suspension (dosage: 100 mg/kg BTMP suspension+1.5 mg/kg donepezil hydrochloride suspension): a 10 mg/ml BTMP suspension and a 0.15 mg/ml donepezil hydrochloride suspension were respectively prepared, and equal volumes were evenly mixed before administration, to obtain a 5 mg/ml BTMP suspension+0.075 mg/ml donepezil hydrochloride suspension.
The mice in the blank control group, the model group and the test groups were intragastrically administered according to the dosage/specification in 2.2. for 8 weeks, and the water maze training and testing were started in the last week of the administration. The water maze training and testing lasted for 6 days, with 5 days of training and 1 day of testing. In addition, during the water maze training and testing period (6 days in total), conditions such as the indoor lighting etc. were kept constant, and the room was kept quiet, so as to eliminate the interference of the environment and personnel.
(1) Pre-test preparation: an appropriate amount of water was placed in a water maze pool with water temperature being kept at 22±3° C., a platform was placed at a fixed position (the target quadrant) and 1 cm below the water surface, and titanium dioxide was added until water color was white, and the platform could not be seen clearly.
(2) Training period (Day 1 to Day 5): each mouse was placed on the platform for 15 s (to increase the mouse's sense of security on the platform) prior to the first quadrant training on each day, and then the mouse was placed in the quadrant where the platform located in the pool (head towards the wall), and a swimming time of 60 s was set. If it found the platform within 60 s and stayed for 5 s, it was considered as a success in finding the platform.
After the first quadrant training, the training in the remaining three quadrants was performed in turn, wherein it is not necessary to place the mice on the platform and hold for 15 s before training.

Structures can show the parent of a compound that is named as a salt.

For `COc1cc2c(cc1OC)C(=O)C(CC1CCN(Cc3ccccc3)CC1)C2` (stereo not drawn) [Donepezil hydrochloride, donepezil hydrochloride], the “Time in the target quadrant” value stood at 14.44 ± 1.11 s; the “Times of crossing over the platform” value was found to be 1.80 ± 0.79; the latent period was 27.80 ± 2.04 s; the “spatial memory and learning ability of the AD mice (result in words)” value (from here on “spatial memory and learning ability”) is “significantly improved”.
For `Cc1ncc(C[n+]2csc(CCO)c2C)c(N)n1` [VB1, vitamin B1], the “Time in the target quadrant” value is recorded as 11.87 ± 1.17^*#& s; the “Times of crossing over the platform” value is listed as 1.00 ± 0.67^*&; the latent period was 35.10 ± 4.09^*#& s; the “spatial memory and learning ability” value is listed as “did not significantly improve”.
Consider `C/C(=C(\CCOP(=O)(O)O)SC(=O)c1ccccc1)N(C=O)Cc1cnc(C)nc1N` [BTMP, S-2-[[(2-methyl-4-amino-5-pyrimidinyl)methyl]formylamino]-5-phosphonooxy-2,3-pentenyl-3-mercaptobenzoate], for which the “Time in the target quadrant” value is 14.96 ± 1.50 s; the “Times of crossing over the platform” value is recorded as 2.10 ± 0.74; the latent period stood at 26.10 ± 1.85 s; the “spatial memory and learning ability” value is “significantly improved”.

(Values after patent US20230248726A1, “PHARMACEUTICAL COMPOSITION AND APPLICATION THEREOF” (SHANGHAI RAISING PHARMACEUTICAL CO., LTD., priority 2020, published 2023).)
